Results reported in US8765678B2, “Inhibition of the renin-angiotensin system for the treatment of renal, vascular and cartilage pathology” (Mor Research Applications Ltd., priority 2005, dated 2014).
“Also recorded” adds a separate entry of the source.

How the values were obtained:
[1] = tested on: Rat mesangial cells (RMC); test: Radioactive assay (^35S labeling) of cell-associated GAGs in RMC; type: cell-based; conditions: for cell-associated GAGs (^35S), % of control: RMC
Description: (§1) Rat mesangial cells (RMC): RMC derived from Sprague-Dawley rats (#ATCC-mesangial-CRL-2573) were cultured in DMEM supplemented with 15% fetal calf serum (FCS) and antibiotics, according to ATCC instructions. Mesangial cells are derived from the glomerular interstitium of the kidney and thus serve as a valuable tool for the analysis of the GBM.
(§2) Radioactive assay (^35S labeling): Cells were grown to confluence, and were rendered quiescent in 2% FCS for 24 hours, following which they were transferred to serum-free medium plus one of the following additives: control, PAN 40 μg/ml, PAN+E 200 μg/ml, PAN+E 400 μg/ml, PAN+E 800 μg/ml, PAN+C10^−7M candesartan in the presence of 1 μCi/ml ^35S. Following 24 hours, medium was collected, cells were harvested by trypsinization, and aliquots obtained for cell and protein measurements. Cells were digested with papain as described, followed by extensive dialysis against water containing a non-radioactive sodium sulfate, until water contained less than 100 cpm/ml. Dialysate was transferred to Corex tubes and the same procedure was carried out as described for non-radioactive GAGs. Radioactivity was measured in a beta-counter.

Chondrocytes = test: Radioactive assay (^35S labeling) of cell-associated GAGs in chondrocytes; type: cell-based
Description: Chondrocytes: Tissue bits from articular cartilage were incubated in-vitro and explant cell cultures were established as described [Nevo et al., 1972, Dev Biol 28: 219-228]. The cell cultures were assessed by immunohistochemistry.
as §2

rats with PAN nephrosis [2] = test: Blood and urine tests in rats with PAN nephrosis; type: in vivo, rat; conditions: Wistar rats; PAN 75 mg/kg tail vein; enalapril 50 mg/L in drinking water from 3 days prior to PAN; blood day 10
Description: (§3) Animals and treatment regimen—Twenty-six male Wistar rats (Belinson, Israel, 220-260 gr each) were housed in individual metabolic cages, and allowed free access to a standard diet and water. Following an acclimatization period of 3 days, the rats were randomized into three groups: controls, puromycin aminonucleoside-treated (PAN-treated) and PAN+ enalapril treated. Six controls were injected with 0.9% NaCl, and 20 rats were injected with PAN (75 mg/kg, Sigma, St. Louis, Mo.) through the tail vein. Ten of the latter were treated with enalapril (Merck Research Laboratories, 50 mg/L) in their drinking water 3 days prior to PAN injection. On day 9, 24-hour urine collections were performed and the protein content was measured using the Beckman Array-Protein system. On day 10, rats were weighed and blood was collected for measurement of serum albumin, creatinine and cholesterol (Autoanalyzer, Hitachi, Japan). All animal experimentation was conducted according to the guidelines established by the Rabin Medical Center ethical committee for the Care and Use of Laboratory Animals

[3] = tested on: Human umbilical vein endothelial cells (HUVEC); test: Radioactive assay (^35S labeling) of cell-associated GAGs in endothelial cells; type: cell-based
Description: Endothelial cells: Human umbilical vein endothelial cells (HUVEC) were isolated by collagenase treatment. Cultures were established in M-199 medium containing 10% FCS, 25 μl/ml endothelial mitogen (Biomedical Technologies, Mass., USA) and antibiotics. HUVEC were passaged by treatment with 0.25% trypsin/0.02% EDTA, and passages 2-3 were used for experiments.
as §2

rats with PAN nephrosis [4] = test: Electron microscopy morphology of kidney sections; type: in vivo; conditions: PAN injected rat kidney, without or with enalapril treatment
Description: as §3
Tissue preparation: The kidneys were removed rapidly and placed on ice and the cortices were separated from the medulla. Slices of each kidney were fixed in 0.5% glutaraldehyde in phosphate buffered saline (PBS), pH 7.4 for morphological and histochemical studies. […]

[5] = tested on: Rat mesangial cells (RMC); test: Calorimetric assay of cell-associated GAGs; type: cell-based; conditions: for cell-associated GAGs: 36 hours
Description: as §1
Calorimetric assay: Cell-associated GAGs were isolated from RMC by cetylpyridinium chloride (CPC, Sigma) precipitation, as described by (Nevo et al., 1972). Briefly, cells were rendered quiescent in 2% FCS for 24 hours (i.e., starvation conditions), then incubated in DMEM for 36 hours with PAN 40 μg/ml (Sigma), in the presence of increasing doses of enalaprilat [(E), the active form of enalapril], according to the following protocol: control, PAN, PAN+E 200 μg/ml, PAN+E 400 μg/ml, PAN+E 800 μg/ml. Following thorough rinsing in PBS, RMC were harvested using 0.05% trypsin/EDTA. Following addition of a buffer containing 0.1 M sodium acetate, 0.005 M EDTA (Sigma), 0.005 M cysteine (Sigma), and 0.1% papain (Sigma), pH 5.4, the mixtures were incubated for 48 hours at 65° C. and dialyzed for 24 hours against distilled water. NaCl was added to the dialysate to a final concentration of 30 mM, and mixed well. GAGs were precipitated by the addition of CPC to a final concentration of 0.5% and the solution was incubated overnight at 37° C. The precipitate was collected by centrifugation, dissolved in 2 M CaCl2, reprecipitated with ethanol:ether (2:1), collected by centrifugation and dried. GAGs were determined calorimetrically (uronic acid content×3.3=GAG content) using heparan sulfate as standard and expressed as μg GAGs/10^6 cells.

[6] = tested on: GBM of nephrotic PAN rats; test: CCG binding to the GBM, electron microscopy histochemistry and morphometry; type: in vivo, rat; conditions: for CCG binding to the GBM (electron micrograph): PAN injected rat kidney, without or with enalapril treatment; for CCG binding, particles/μm^2 GBM (morphometric analysis): PAN rats, non-treated or enalapril-treated, control 67.3+5.6; for anionic GAG sites / preservation of GAGs in the GBM: nephrotic PAN rats
Description: as §3
Tissue preparation: The kidneys were removed rapidly and placed on ice and the cortices were separated from the medulla. Slices of each kidney were fixed in 0.5% glutaraldehyde in phosphate buffered saline (PBS), pH 7.4 for morphological and histochemical studies. For electron microscopy (EM), 1 mm^3 tissue blocks of GA-fixed kidneys were washed, dehydrated in ethanol, and embedded in LR-white resin (Polysciences, Wash. Pa.). For EM morphology, similar tissue blocks were post-fixed with 1% Osmium tetroxide (OsO4) in Veronal-acetate buffer, pH 7.4, for 1 hour at 4° C., dehydrated in ethanol and propylene oxide, and embedded in araldite (Polysciences).
Electron microscopy morphology and histochemistry: For EM morphology, ultrathin araldite sections were mounted on 400 mesh grids, stained with uranyl acetate and lead citrate, and coated with carbon. F or EM histochemistry, ultrathin LR-white sections were mounted on 200 mesh nickel grids, coated with formvar films and impregnated with carbon. Polycationic colloidal gold (CCG) was prepared by stabilization of colloidal gold, 12 nm with poly-L-lysine, as described by Weinstein et al., [J Am Soc Nephrol 8: 586-595, 1997]. The sections were stained with CCG, rinsed, and stained with saturated uranyl acetate in 50% ethanol. Examination of all sections was carried out using a JEOL-100B EM at 80 KV.
Morphometry: Analysis of the CCG labeling densities was performed in a blind manner on LR-white-embedded kidney tissue stained with CCG. Analysis was carried out by calculating the density of gold particles/1 μm^2 area of randomly cut membranes. Five rats from each group were studied. In each rat, 100 measurements from 10 glomeruli were performed. All measurements were carried out on digitized electron micrographs at a magnification of 5000, using the NIH-Image 1.49 program for the Macintosh.

[7] = tested on: Osteoarthritic-induced rat; test: Osteoarthritis model of partial meniscectomy, intra-articular ACE-I gel; type: in vivo; conditions: rats, composite gel containing 5% captopril in the joint, 6 weeks
Text: Osteoarthritis (OA) was induced in 32 rats using the model of partial meniscectomy of Rolli Moskowitz [Moskowitz, R W and Goldberg V M, J. Rheumatol. 1987 May; 14 Spec No:116-8; Moskowitz, R W et al., Ann Rheum Dis. 1981 December; 40(6):584-92]. The tissues of the control rats undergoing partial meniscectomy (8 rats) were immediately closed by suturing, while to the ACE-I treated group (24 rats), immediately following post partial meniscectomy, a composite gel containing ACE-I (5% captopril) was added prior to suturing the joint layers. After 6 weeks the animals were sacrificed. Prior to termination of the experiment a physical checkup ensured the degree of limping and movement limitation of the operated lower limb using an apparatus conducting a digital measurement of the degree of disability, translated to the pressure in grams activated by the operated limb, versus the healthy limb. Histological sections of the joint, femur and tibia, were prepared and stained with hematoxylin-eosin (H&E) as well as with Alcian blue at pH 2.5 and 1.0, and Masson's trichrome stain (Dako, Calif., U.S.A.). Together, these staining techniques assess proteoglycan content and extracellular matrix deposition.

[8] = tested on: inflammatory arthritis in mice; conditions: Dalbeth et al., Rheumatology 44:24-31, 2004; cited from earlier work
[9] = chondrocytes pretreated with puromycin
[10] = chondrocytes, pretreatment with puromycin + enalaprilat 200 μg/ml

CN(C)c1ncnc2c1ncn2[C@@H]1O[C@H](CO)[C@@H](N)[C@H]1O [PAN, puromycin aminonucleoside]
cell-associated GAGs (^35S), % of control ([1]; PAN 40 μg/ml, 24 hours): 69%
^35S-GAG cpm ± SD (Chondrocytes; [9]): 4333 ± 108 cpm
^35S-GAG, % of control culture (Chondrocytes; [9]): 68%
serum creatinine (rats with PAN nephrosis [2]): 0.60 ± 0.01 mg/dL
cell associated GAGs (^35S), % of control ([3]; PAN 40 μg/ml): 81%
podocyte architecture (electron microscopy) (rats with PAN nephrosis [4]): loss of podocyte architecture in the glomeruli with flattening and effacement of foot processes
cell-associated GAGs ([5]; PAN 40 μg/ml, control 5.03+0.6): 2.35±0.54 μg GAGs/106 cells
CCG binding to the GBM (electron micrograph) [6]: marked decrease in CCG binding to the GBM
CCG binding, particles/μm^2 GBM (morphometric analysis) [6]: 39.1±1.0 particles/μm^2 GBM
anionic GAG sites / preservation of GAGs in the GBM [6]: decreased anionic GAG sites in the GBM

CCOc1nc2cccc(C(=O)O)c2n1Cc1ccc(-c2ccccc2-c2nnn[nH]2)cc1 [candesartan]
cell-associated GAGs (^35S), % of control ([1]; PAN + candesartan 10^−7 M (first column of that head, c3)): 76 ± 6.2%
cell-associated GAGs (^35S), % of control ([1]; PAN + candesartan 10^−7 M (second column of that head, c4)): 102%
cell associated GAGs (^35S), % of control ([3]; PAN + candesartan 10^−7 M): 107%

C[C@H](CS)C(=O)N1CCC[C@H]1C(=O)O [captopril]
OA manifestations [7]: only a mild initiation of OA, evident by minimal fibrillations and cell cloning; also recorded: slows down, and minimizes the OA manifestations
articular cartilage histology (cellularity, proteoglycans) [7]: highly cellular, with a dense presentation of proteoglycans

CCOC(=O)[C@H](CCc1ccccc1)N[C@@H](C)C(=O)N1CCC[C@H]1C(=O)O [enalapril]
serum cholesterol (rats with PAN nephrosis [2]): 91.7 ± 10.7 mg/dL
serum creatinine (rats with PAN nephrosis [2]): 0.60 ± 0.02 mg/dL
CCG binding to the GBM (electron micrograph) [6]: intense CCG binding similar to control
CCG binding, particles/μm^2 GBM (morphometric analysis) [6]: 56.0±5.5 particles/μm^2 GBM
anionic GAG sites / preservation of GAGs in the GBM [6]: beneficial effect on the preservation of GAGs in the GBM

C[C@H](N[C@@H](CCc1ccccc1)C(=O)O)C(=O)N1CCC[C@H]1C(=O)O [enalaprilat]
cell-associated GAGs (^35S), % of control ([1]; PAN + enalaprilat 800 μg/ml): 80%
GAG synthesis (incorporation of ^35S), summary statement ([1]; cell type not given, in the presence of PAN): significantly increased GAG synthesis to control levels
^35S-GAG, % of control culture (Chondrocytes; chondrocytes, in the presence of enalaprilat 200 μg/ml, no puromycin): 108%
^35S-GAG cpm ± SD (Chondrocytes; chondrocytes, in the presence of enalaprilat 200 μg/ml, no puromycin, control culture 6331 ± 1075): 6820 ± 1651 cpm
^35S-GAG cpm ± SD (Chondrocytes; [10]): 9636 ± 1848 cpm
^35S-GAG, % of control culture (Chondrocytes; [10]): 152%
cell associated GAGs (^35S), % of control ([3]; PAN + enalaprilat 800 μg/ml): 96%
cell-associated GAGs ([5]; PAN 40 μg/ml + E 200 μg/ml): 2.43+0.42 μg GAGs/10^6 cells
cell-associated GAGs ([5]; PAN 40 μg/ml + E 400 μg/ml): 2.8+0.65 μg GAGs/10^6 cells
cell-associated GAGs ([5]; PAN 40 μg/ml + E 800 μg/ml): 5.3±0.43 μg GAGs/10^6 cells
GAG content, dose dependence ([5]; PAN 40 μg/ml + enalaprilat 200-800 μg/ml): dose-dependent rise in GAG content

CCOC(=O)[C@H](CCc1ccccc1)N[C@@H](C)C(=O)N1Cc2ccccc2C[C@H]1C(=O)O [quinapril]
inflammatory arthritis / disease activity [8]: suppress inflammatory arthritis
